Assay results from patent US5231103A, “Quinolin-2-yl-methoxybenzylhydroxyureas” (Bayer Aktiengesellschaft, priority 1991, dated 1993).

Target: T1, 5-LO (Homo sapiens, UniProt P09917)
T1 construct: release of leukotriene B4 (LTB4) in polymorphonuclear human leucocytes (PMN); endogenous in cells; host or cells: human polymorphonuclear leucocytes (PMN)
T1 sequence (P09917 1-674): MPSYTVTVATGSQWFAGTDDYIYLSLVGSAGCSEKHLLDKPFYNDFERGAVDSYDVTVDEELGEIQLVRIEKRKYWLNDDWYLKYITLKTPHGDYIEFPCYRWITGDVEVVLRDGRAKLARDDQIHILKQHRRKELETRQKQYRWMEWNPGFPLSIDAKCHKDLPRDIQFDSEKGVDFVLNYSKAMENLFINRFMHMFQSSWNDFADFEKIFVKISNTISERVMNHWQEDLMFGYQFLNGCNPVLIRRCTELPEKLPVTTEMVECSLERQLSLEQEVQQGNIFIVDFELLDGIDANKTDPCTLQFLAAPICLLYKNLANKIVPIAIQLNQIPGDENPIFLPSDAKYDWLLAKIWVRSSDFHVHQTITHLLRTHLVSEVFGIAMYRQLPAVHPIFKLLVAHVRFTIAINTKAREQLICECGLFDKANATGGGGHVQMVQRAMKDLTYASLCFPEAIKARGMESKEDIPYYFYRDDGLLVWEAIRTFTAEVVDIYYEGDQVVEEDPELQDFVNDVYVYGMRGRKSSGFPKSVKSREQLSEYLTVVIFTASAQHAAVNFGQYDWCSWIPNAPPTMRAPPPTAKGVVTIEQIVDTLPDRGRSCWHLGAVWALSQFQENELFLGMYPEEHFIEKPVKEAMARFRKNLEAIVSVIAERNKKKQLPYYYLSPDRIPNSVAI
Experiment: lipoxygenase inhibition: release of leukotriene B4 (LTB4) in polymorphonuclear human leucocytes (PMN) after Ca ionophore, by reverse phase HPLC
Assay type: cell-based
Settings: LTB4 release in human PMN after addition of substance and Ca ionophore; RP-HPLC
Protocol: As a measure of lipoxygenase inhibition, the release of leukotriene B4 (LTB4) in polymorphonuclear human leucocytes (PMN) after addition of substances and Ca ionophore was determined by means of reverse phase HPLC according to Borgeat, P. et al., Proc. Nat. Acad. Sci., 76, 2148-2152 (1979).

Row | SMILES | IC50 [nM]
1 | NC(=O)N(O)C(c1ccc(OCc2ccc3ccccc3n2)cc1)C1CCCC1 (centres unmarked) [Example 2, N-[4-(Quinolin-2-yl-methoxy)phenyl-cyclopentyl]methyl-N-hydroxyurea] | 1200
2 | NC(=O)N(O)C(c1ccc(OCc2ccc3ccccc3n2)cc1)C1CCCCC1 (centres unmarked) [Example 1, N-[4-(Quinolin-2-yl-methoxy)phenyl-cyclohexyl]methyl-N-hydroxyurea] | 250
